Data published in ChEMBL document CHEMBL5291721, “A preclinical secondary pharmacology resource illuminates target-adverse drug reaction associations of marketed drugs” (Nat Commun, 2023).

Assays:
[1] = target: T1, Alpha-1A adrenergic receptor (Homo sapiens, UniProt P35348); type: functional, cell-based
T1 sequence (P35348 whole entry): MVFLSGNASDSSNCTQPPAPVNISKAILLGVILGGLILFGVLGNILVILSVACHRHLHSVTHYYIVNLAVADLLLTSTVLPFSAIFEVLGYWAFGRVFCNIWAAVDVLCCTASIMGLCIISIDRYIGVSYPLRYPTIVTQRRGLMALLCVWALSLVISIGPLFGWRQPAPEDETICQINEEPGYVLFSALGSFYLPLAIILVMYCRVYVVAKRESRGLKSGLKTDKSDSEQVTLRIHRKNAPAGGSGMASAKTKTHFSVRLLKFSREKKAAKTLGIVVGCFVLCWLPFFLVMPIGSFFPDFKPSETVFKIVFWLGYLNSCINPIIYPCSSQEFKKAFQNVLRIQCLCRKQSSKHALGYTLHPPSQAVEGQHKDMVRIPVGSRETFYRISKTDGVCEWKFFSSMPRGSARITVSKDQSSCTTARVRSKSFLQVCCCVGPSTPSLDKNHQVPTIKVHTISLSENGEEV

[2] = target: T2, Alpha-2A adrenergic receptor (Homo sapiens, UniProt P08913); type: functional, cell-based
T2 sequence (P08913 whole entry): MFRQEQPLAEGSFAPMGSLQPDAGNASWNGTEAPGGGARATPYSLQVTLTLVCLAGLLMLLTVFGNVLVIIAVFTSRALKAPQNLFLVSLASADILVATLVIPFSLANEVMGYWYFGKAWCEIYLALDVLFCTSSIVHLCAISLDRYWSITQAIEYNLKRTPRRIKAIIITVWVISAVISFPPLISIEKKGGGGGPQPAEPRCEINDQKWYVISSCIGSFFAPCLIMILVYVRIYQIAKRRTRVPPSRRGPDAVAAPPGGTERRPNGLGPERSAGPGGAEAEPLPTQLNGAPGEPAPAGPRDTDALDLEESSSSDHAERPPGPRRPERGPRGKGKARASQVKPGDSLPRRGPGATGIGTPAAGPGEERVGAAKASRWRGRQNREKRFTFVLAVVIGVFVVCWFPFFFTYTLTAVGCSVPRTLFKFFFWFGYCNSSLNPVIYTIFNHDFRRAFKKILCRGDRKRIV

D(1A) dopamine receptor = D(1A) dopamine receptor (Homo sapiens, UniProt P21728); type: functional, cell-based
[3] = target: T3, Gamma-aminobutyric acid receptor subunit alpha-1 (Rattus norvegicus, UniProt P62813)
[4] = target: T3, Gamma-aminobutyric acid receptor subunit alpha-1; type: functional
Histamine H2 receptor = Histamine H2 receptor (Homo sapiens, UniProt P25021); type: functional, cell-based
[5] = target: T4, 5-hydroxytryptamine receptor 1A (Homo sapiens, UniProt P08908); type: functional, cell-based
T4 sequence (P08908 whole entry): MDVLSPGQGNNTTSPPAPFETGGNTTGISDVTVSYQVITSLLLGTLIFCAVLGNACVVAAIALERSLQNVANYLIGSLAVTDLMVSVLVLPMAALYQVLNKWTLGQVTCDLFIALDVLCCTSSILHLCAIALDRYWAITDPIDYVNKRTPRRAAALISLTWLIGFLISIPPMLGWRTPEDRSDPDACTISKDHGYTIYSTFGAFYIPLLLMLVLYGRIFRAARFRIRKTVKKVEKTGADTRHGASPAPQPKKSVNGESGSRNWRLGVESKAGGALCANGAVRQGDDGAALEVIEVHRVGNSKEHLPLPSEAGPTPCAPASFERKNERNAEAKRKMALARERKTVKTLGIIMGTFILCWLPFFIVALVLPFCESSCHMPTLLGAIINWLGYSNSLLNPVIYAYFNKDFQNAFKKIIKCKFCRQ

[6] = target: 5-hydroxytryptamine receptor 2B (Homo sapiens, UniProt P41595); type: functional, cell-based
[7] = target: Delta-type opioid receptor (Homo sapiens, UniProt P41143)
[8] = target: cGMP-inhibited 3',5'-cyclic phosphodiesterase 3A (Homo sapiens, UniProt Q14432); type: functional
[9] = target: T5, Muscarinic acetylcholine receptor M1 (Homo sapiens, UniProt P11229); type: functional, cell-based
T5 sequence (P11229 whole entry): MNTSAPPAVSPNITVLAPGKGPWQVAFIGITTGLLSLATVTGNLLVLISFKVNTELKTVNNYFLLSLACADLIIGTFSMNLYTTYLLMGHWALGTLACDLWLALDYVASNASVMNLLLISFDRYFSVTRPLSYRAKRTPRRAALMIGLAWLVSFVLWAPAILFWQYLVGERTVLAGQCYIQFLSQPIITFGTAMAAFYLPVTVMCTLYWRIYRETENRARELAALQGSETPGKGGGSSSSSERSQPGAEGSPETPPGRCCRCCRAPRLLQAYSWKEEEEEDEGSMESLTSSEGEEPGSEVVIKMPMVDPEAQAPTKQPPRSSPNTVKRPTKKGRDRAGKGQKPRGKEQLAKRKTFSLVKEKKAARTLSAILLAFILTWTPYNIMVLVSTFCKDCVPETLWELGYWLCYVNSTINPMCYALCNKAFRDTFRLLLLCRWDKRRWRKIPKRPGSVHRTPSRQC

[10] = target: T5, Muscarinic acetylcholine receptor M1; type: functional, cell-based; remark: listed apart in the source
[11] = target: T6, Muscarinic acetylcholine receptor M2 (Homo sapiens, UniProt P08172); type: functional, cell-based
T6 sequence (P08172 whole entry): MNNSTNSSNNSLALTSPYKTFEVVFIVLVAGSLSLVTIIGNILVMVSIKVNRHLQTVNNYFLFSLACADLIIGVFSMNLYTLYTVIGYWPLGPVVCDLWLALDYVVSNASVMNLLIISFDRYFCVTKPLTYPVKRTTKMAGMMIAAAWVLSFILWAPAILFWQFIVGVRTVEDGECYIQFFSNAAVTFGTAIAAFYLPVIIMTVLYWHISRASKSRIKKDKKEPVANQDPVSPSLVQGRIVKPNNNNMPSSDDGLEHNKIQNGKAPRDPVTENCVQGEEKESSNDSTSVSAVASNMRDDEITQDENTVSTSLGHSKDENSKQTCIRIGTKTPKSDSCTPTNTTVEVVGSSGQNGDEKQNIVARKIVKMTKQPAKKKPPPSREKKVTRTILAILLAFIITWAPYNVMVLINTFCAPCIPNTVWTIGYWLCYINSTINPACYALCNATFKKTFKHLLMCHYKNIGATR

[12] = target: T6, Muscarinic acetylcholine receptor M2; type: functional, cell-based; remark: listed apart in the source
[13] = target: Sodium-dependent dopamine transporter (Homo sapiens, UniProt Q01959)

Measured: AC50
Further: assay procedure not described here.

cGMP-inhibited 3',5'-cyclic phosphodiesterase 3A, sequence (Q14432 whole entry): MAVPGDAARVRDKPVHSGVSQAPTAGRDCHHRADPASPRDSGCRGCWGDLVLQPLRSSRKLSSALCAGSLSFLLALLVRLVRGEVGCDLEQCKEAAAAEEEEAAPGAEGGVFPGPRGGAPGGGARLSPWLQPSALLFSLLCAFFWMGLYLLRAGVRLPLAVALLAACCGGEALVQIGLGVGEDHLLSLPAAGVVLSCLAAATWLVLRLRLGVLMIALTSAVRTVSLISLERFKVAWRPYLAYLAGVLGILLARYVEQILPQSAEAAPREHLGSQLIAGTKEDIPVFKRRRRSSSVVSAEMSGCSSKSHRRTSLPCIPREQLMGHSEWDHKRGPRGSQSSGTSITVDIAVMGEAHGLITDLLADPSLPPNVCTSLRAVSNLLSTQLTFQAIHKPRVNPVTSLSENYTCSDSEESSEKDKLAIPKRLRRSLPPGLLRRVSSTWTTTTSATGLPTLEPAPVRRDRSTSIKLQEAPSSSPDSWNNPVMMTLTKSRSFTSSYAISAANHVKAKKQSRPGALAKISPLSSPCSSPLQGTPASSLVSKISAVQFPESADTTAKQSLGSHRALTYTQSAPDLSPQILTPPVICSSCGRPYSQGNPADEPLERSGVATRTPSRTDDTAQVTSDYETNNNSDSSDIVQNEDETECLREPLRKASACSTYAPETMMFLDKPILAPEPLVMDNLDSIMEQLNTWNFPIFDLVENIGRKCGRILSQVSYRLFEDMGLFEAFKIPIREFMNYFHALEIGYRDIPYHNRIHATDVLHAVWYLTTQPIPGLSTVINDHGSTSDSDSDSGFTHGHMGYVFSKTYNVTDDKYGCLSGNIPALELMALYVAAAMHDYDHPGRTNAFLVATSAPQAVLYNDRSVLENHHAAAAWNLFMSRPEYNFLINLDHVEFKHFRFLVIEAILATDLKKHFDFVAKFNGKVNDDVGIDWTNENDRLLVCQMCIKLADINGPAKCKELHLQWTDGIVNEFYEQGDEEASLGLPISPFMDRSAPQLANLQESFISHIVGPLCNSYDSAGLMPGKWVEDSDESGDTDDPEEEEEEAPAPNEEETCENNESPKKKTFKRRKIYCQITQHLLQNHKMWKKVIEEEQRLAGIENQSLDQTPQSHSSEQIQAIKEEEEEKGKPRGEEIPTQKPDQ
T3 sequence (P62813 whole entry): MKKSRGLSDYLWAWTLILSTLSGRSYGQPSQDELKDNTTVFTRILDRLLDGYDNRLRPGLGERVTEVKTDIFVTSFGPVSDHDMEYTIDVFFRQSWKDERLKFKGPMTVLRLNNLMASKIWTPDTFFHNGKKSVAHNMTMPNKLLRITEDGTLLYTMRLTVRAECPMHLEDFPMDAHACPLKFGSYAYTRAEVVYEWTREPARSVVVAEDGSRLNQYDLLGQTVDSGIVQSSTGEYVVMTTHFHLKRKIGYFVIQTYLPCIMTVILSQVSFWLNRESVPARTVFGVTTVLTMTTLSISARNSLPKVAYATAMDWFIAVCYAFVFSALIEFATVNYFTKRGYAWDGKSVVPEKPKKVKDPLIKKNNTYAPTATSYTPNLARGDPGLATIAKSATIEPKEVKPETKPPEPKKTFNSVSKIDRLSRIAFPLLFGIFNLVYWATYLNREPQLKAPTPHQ
Histamine H2 receptor, sequence (P25021 whole entry): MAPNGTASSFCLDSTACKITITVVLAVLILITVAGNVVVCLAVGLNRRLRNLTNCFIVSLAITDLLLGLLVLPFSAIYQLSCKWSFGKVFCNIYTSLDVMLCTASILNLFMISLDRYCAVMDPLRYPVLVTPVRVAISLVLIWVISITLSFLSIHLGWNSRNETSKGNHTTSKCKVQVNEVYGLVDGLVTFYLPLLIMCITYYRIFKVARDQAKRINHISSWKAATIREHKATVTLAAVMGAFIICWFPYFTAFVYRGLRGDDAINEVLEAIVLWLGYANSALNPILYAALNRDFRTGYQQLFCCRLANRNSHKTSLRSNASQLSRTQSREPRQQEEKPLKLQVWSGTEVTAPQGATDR
D(1A) dopamine receptor, sequence (P21728 whole entry): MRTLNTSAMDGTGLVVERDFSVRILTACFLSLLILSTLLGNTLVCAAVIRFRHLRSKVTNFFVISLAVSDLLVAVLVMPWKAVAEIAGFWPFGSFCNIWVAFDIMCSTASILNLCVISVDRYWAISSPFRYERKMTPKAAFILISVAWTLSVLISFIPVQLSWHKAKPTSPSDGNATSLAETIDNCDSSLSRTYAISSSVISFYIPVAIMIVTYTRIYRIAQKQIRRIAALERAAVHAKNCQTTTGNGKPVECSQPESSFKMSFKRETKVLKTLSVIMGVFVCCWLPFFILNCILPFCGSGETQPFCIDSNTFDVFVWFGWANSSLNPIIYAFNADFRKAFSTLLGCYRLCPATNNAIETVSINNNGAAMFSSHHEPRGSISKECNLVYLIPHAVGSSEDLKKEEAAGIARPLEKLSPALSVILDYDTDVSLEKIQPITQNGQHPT
Delta-type opioid receptor, sequence (P41143 whole entry): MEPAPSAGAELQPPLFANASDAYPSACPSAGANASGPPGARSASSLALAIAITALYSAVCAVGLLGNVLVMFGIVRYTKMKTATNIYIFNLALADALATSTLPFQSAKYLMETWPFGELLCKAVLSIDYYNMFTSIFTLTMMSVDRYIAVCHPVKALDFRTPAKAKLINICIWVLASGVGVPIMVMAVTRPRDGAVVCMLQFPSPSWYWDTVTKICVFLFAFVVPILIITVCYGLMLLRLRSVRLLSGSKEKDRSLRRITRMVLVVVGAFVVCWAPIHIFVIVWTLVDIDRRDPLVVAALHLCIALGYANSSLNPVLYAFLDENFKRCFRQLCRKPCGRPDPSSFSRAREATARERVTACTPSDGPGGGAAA
5-hydroxytryptamine receptor 2B, sequence (P41595 whole entry): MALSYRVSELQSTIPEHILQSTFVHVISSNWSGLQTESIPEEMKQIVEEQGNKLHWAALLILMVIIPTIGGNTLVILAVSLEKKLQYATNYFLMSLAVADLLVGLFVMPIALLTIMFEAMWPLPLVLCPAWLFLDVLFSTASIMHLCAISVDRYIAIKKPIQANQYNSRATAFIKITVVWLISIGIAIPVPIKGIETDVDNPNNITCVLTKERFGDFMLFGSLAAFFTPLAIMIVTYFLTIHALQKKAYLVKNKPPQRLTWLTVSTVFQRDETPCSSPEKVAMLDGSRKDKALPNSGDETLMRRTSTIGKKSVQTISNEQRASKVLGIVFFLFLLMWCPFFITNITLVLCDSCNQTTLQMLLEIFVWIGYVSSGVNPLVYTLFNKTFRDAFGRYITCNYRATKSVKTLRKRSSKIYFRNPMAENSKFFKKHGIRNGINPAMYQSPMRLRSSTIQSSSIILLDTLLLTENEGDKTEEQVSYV
Sodium-dependent dopamine transporter, sequence (Q01959 whole entry): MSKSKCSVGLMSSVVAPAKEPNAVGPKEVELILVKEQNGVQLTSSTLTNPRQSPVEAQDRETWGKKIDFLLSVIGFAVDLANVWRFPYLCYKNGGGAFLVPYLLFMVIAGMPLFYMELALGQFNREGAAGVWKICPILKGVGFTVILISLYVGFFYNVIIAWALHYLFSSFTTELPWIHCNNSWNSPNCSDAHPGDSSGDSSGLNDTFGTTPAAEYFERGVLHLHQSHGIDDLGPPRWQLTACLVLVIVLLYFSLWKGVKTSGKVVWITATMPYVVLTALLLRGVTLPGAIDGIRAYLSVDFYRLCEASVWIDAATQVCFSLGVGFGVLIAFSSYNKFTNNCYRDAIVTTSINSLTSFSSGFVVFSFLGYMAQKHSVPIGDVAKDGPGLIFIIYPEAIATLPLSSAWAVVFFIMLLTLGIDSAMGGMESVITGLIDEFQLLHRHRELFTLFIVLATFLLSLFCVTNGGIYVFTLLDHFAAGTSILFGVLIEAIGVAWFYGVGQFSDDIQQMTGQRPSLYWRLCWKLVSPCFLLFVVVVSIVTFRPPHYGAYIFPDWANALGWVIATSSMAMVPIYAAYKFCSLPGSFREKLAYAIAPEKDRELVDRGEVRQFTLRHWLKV

CO/N=C(\C(=O)N[C@@H]1C(=O)N2C(C(=O)OCOC(=O)C(C)(C)C)=C(C)CS[C@H]12)c1csc(N)n1
not listed: [9] | [10] | [11] | [12] | [13]
> 30 µM: all other assays above

CCCC1C(=O)N2C(N(C)C)=Nc3ccc(C)cc3N2C1=O (stereo not drawn) [APAZONE]
> 30 µM: [9] | [10]

O=C1CN=C(c2ccccc2)c2c(sc3c2CCCC3)N1 [BENTAZEPAM]
> 30 µM: [9] | [10]

O=C(Cn1ccnc1[N+](=O)[O-])NCc1ccccc1 [BENZNIDAZOLE]
not listed: [9] | [10]
> 30 µM: all other assays above

CCCC[N+]1(C)[C@@H]2C[C@@H](OC(=O)[C@H](CO)c3ccccc3)C[C@H]1[C@@H]1O[C@@H]12 (stereo partly drawn) [BUTYLSCOPOLAMINE]
> 30 µM: [3]

COCC1=C(C(=O)OC(C)OC(=O)OC(C)C)N2C(=O)[C@@H](NC(=O)/C(=N\OC)c3csc(N)n3)[C@H]2SC1 (stereo partly drawn) [CEFPODOXIME PROXETIL]
not listed: [9] | [10] | [13]
> 30 µM: all other assays above

O=C(c1ccc(F)c(F)c1Nc1ccc(I)cc1F)N1CC(O)([C@@H]2CCCCN2)C1 [COBIMETINIB]
17.4 µM: [9]
> 30 µM: [3]

NS(=O)(=O)c1cc2c(cc1Cl)NC(CC1CCCC1)NS2(=O)=O (stereo not drawn) [CYCLOPENTHIAZIDE]
not listed: [9] | [10] | [11] | [12] | [13]
> 30 µM: all other assays above

COc1ccc(-c2cc(=O)c3c(O)cc(O[C@@H]4O[C@H](CO[C@@H]5O[C@@H](C)[C@H](O)[C@@H](O)[C@H]5O)[C@@H](O)[C@H](O)[C@H]4O)cc3o2)cc1O [DIOSMIN]
> 30 µM: [9] | [10]

CCOc1ccc(/C=C2\NCCc3cc(OCC)c(OCC)cc32)cc1OCC [DROTAVERINE]
12.3 µM: [10]
> 30 µM: [9]

CC1=NN(c2ccccc2)C(=O)C1 [EDARAVONE]
> 30 µM: [3]

N/N=c1/cc2c(n[nH]1)CCN(C(=O)c1ccccc1)C2 [ENDRALAZINE]
not listed: [9] | [10] | [11] | [12] | [13]
> 30 µM: all other assays above

CC(C)=CCC1C(=O)N(c2ccccc2)N(c2ccccc2)C1=O [FEPRAZONE]
> 30 µM: [3]

C[C@@H]1C[C@H]2[C@@H]3C[C@H](F)C4=CC(=O)C=C[C@]4(C)[C@@]3(F)[C@@H](O)C[C@]2(C)[C@@]1(O)C(=O)COC(=O)C(C)(C)C [FLUMETHASONE PIVALATE]
> 30 µM: [9] | [10]

CC(C)Cc1ccc(C(C)C(=O)NO)cc1 (stereo not drawn) [IBUPROXAM]
20.1 µM: [10]
> 30 µM: [9]

CC/C=C\C/C=C\C/C=C\C/C=C\C/C=C\CCCC(=O)O [ICOSAPENT]
> 30 µM: [9] | [10]

CCN(CC)CCNc1ccc(C)c2sc3ccccc3c(=O)c12 [LUCANTHONE]
> 30 µM: [9]
4.21 µM: [10]

CN1C(=O)N(C)C2C1N(C)C(=O)N2C (stereo not drawn) [MEBICAR]
not listed: [6] | [9] | [10] | [13]
> 30 µM: all other assays above

CC(=O)O[C@]1(C(C)=O)CC[C@H]2[C@@H]3C[C@H](C)C4=CC(=O)CC[C@]4(C)[C@H]3CC[C@@]21C [MEDROXYPROGESTERONE ACETATE]
13.4 µM: [3]
> 30 µM: [13]

CC(=O)OC(C)C[N+](C)(C)C (stereo not drawn) [METHACHOLINE]
0.0079 µM: [9]

Cn1cc[nH]c1=S [METHIMAZOLE]
> 30 µM: [3]

CO[C@@]12[C@H](COC(N)=O)C3=C(C(=O)C(C)=C(N)C3=O)N1C[C@@H]1N[C@@H]12 [MITOMYCIN]
> 30 µM: [3]

COc1ccc2c(c1)OC(C)(C)C(c1ccccc1)C2c1ccc(OCCN2CCCC2)cc1 (stereo not drawn) [ORMELOXIFENE]
10.5 µM: [9]

Nc1ccc(/N=N/c2ccccc2)c(N)n1 [PHENAZOPYRIDINE]
22 µM: [8]
2.9 µM: [7]
not listed: [5] | [9] | [10] | [13]
> 30 µM: all other assays above

CCO[C@@H](Cc1ccc(OCCn2c(C)ccc2-c2ccc(SC)cc2)cc1)C(=O)O [SAROGLITAZAR]
18.7 µM: [9]

O=C1CCC(N2C(=O)c3ccccc3C2=O)C(=O)N1 (stereo not drawn) [THALIDOMIDE]
> 30 µM: [1] | [3] | [7] | [8]
not listed: [9] | [10]
> 10 µM: all other assays above
